The test system of assay [1] is APOB mRNA in liver. Kind of assay: In vivo gene knockdown, liposomal siRNA formulation (Example 3), APOB siRNA. Conditions: dose 3 mg/kg intravenously, CD1 mice, liver harvested three days later, real-time RT-PCR, GAPDH reference. As to the method:
(§1) Each liposome formulation was made by mixing lipids of each lipomacrocycle compound (Table 1) combined with DSPC, DMG-PEG 2K, and cholesterol at the weight ratio of 3.85:0.42:0.21:0.79 in ethanol and siRNA in water. Then 5% dextrose water was added in each formulation before dosing to mice.
(§2) All procedures used in animal studies conducted were approved by the Institutional Animal Care and Use Committee (IACUC) and were consistent with local, state and federal regulations as applicable. Mice, rats, and rabbits received siRNA formulations intravenously at dose volume of 0.2 ml, 1 ml, or 10 ml, respectively. Animals were sacrificed 2 to 7 days later. Tissues were harvested and mRNA was isolated with Turbocapture kit (Qiagen) for analyzing change of gene expression with real-time RT-PCR method (SensiMix SYBR One-Step Kit, Bioline). Serum was harvested for analyzing blood chemistry.
(§3) CD1 mice were dosed with lipid particle (Table 1) or liposome (Table 2) siRNA formulation intravenousely and the different tissues were harvested three days later. The gene expression was analyzed with real-time RT-PCR method (for liver, GAPDH as reference gene; for lung and bone marrow, GAPDG and β-actin as reference genes).

Assay [2] concerns SSB mRNA in liver. Kind of assay: In vivo gene knockdown, liposomal siRNA formulation (Example 3), SSB siRNA. On the set-up: species or system CD1 mice. Conditions: liposomal formulation, SSB siRNA, dose 3.2 mg/kg intravenously, CD1 mice, liver harvested three days later, real-time RT-PCR, GAPDH reference. As to the method:
as §1, §2, §3
(Real-time PCR tracks product formation cycle by cycle.)

For assay [3], the system named is SSB mRNA in liver. Kind of assay: In vivo gene knockdown, lipid particle siRNA formulation (Example 4), SSB siRNA. Conditions: lipid particles, dose 3.2 mg/kg intravenously, CD1 mice, liver harvested three days later, real-time RT-PCR, GAPDH reference. As to the method: Lipid Particle formulations were made by first mixed siRNA in an aqueous solution with DOTMA in organic solvent to produce a water-insoluble precipitate. After isolating and drying the precipitate, the precipitate was dissolved in chloroform and further mixed with other lipids as following: Each lipid particle formulation was consisting of 1 part DOTMA+siRNA complex/5 parts any lipomacrocycle compound (Table 1)/1.5 parts N 6-tetrakis (3-aminopropyl)-1,3-propanediamine cholesteryl carbamate/2.2 parts 1,2-dilinoleoyl-sn-glycero-3-phosphoethanolamine/10.08 parts cholesterol PEG-660/4.32 parts cholesterol PEG-660/0.6 parts cholesterol (weight/weight). All the components were dissolved in chloroform and mixed together. Then, the mixtures were dried overnight in Speedvac. The dried formulations were hydrated by adding in certain amount of 5% dextrose water before dosing to animals intravenously.
as §2, §3

As to `CC(C)(C)c1ccc(C(=O)OCC(O)CN(CCCN(CCCCN(CCCN(CC(O)COC(=O)c2ccc(C(C)(C)C)cc2)CC(O)COC(=O)c2ccc(C(C)(C)C)cc2)CCCN(CC(O)COC(=O)c2ccc(C(C)(C)C)cc2)CC(O)COC(=O)c2ccc(C(C)(C)C)cc2)CCCN(CC(O)COC(=O)c2ccc(C(C)(C)C)cc2)CC(O)COC(=O)c2ccc(C(C)(C)C)cc2)CC(O)COC(=O)c2ccc(C(C)(C)C)cc2)cc1` (stereo not drawn) [Compound T4C11], in assay [1], the “Targeted mRNA remain in liver” value is reported as 1.07.

As for `CCCCCCCCCCCCCCOCC(O)CN(CCCN(CCCN(CCCN(CC(O)COCCCCCCCCCCCCCC)CC(O)COCCCCCCCCCCCCCC)CCCN(CC(O)COCCCCCCCCCCCCCC)CC(O)COCCCCCCCCCCCCCC)CCCN(CC(O)COCCCCCCCCCCCCCC)CC(O)COCCCCCCCCCCCCCC)CC(O)COCCCCCCCCCCCCCC` (stereo not drawn) [Compound T3C1], the “Targeted mRNA remain in liver” value was 0.13 in assay [2] and 0.18 in assay [3]. For the compound `CCCCCCCCCCCCC(O)CN1CCN(CC(O)CCCCCCCCCCCC)CCN(CC(O)CCCCCCCCCCCC)CCN(CC(O)CCCCCCCCCCCC)CC1` (stereo not drawn) [Compound T2C6], the “Targeted mRNA remain in liver” value in assay [2] is given as 0.66; in assay [3], 0.86. For the compound `CCCCCCCCCCCCOCC(O)CN(CCCN(CCCCN(CCCN(CC(O)COCCCCCCCCCCCC)CC(O)COCCCCCCCCCCCC)CCCN(CC(O)COCCCCCCCCCCCC)CC(O)COCCCCCCCCCCCC)CCCN(CC(O)COCCCCCCCCCCCC)CC(O)COCCCCCCCCCCCC)CC(O)COCCCCCCCCCCCC` (stereo not drawn) [Compound T4C10], in assay [1], the “Targeted mRNA remain in liver” value turned out to be 0.82.

In the case of `CCCCCCCCCCCCCCC(O)CN1CCN(Cc2ccccc2)CCN(CC(O)CCCCCCCCCCCCCC)CCN(CC(O)CCCCCCCCCCCCCC)CC1` (stereo not drawn) [Compound M1C7], the “Targeted mRNA remain in liver” value was found to be 0.47 in assay [2] and 0.35 in assay [3]. Take `CC(C)(C)C(O)(CCc1ccc(Cl)cc1)CN(CCCN(CCCCN(CCCN(CC(O)(CCc1ccc(Cl)cc1)C(C)(C)C)CC(O)(CCc1ccc(Cl)cc1)C(C)(C)C)CCCN(CC(O)(CCc1ccc(Cl)cc1)C(C)(C)C)CC(O)(CCc1ccc(Cl)cc1)C(C)(C)C)CCCN(CC(O)(CCc1ccc(Cl)cc1)C(C)(C)C)CC(O)(CCc1ccc(Cl)cc1)C(C)(C)C)CC(O)(CCc1ccc(Cl)cc1)C(C)(C)C` (stereo not drawn) [Compound T4C18]: the “Targeted mRNA remain in liver” value in assay [1] is recorded as 1.56.

Source of the values: patent US9233971B2, “Lipomacrocycles and uses thereof” (priority 2010, dated 2016).
